# ChEMBL document CHEMBL1201861, “Genomics of Drug Sensitity in Cancer screening data, Wellcome Trust Sanger Institute”
# Columns and labels:
# Experiment in all cases: cells
# [1] = system: COR-L88; assay type: functional, cell-based; settings: Homo sapiens;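 also: growth inhibition of COR-L88 cells, read out with a cell viability assay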
# Description: SANGER: Inhibition of human COR-L88 cell growth in a cell viability assay.
# [2] = system: ChaGo-K-1; assay type: functional, cell-based; settings: Homo sapiens;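 also: growth inhibition of ChaGo-K-1 cells, read out with a cell viability assay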
# Description: SANGER: Inhibition of human ChaGo-K-1 cell growth in a cell viability assay.
# [3] = system: D-247MG; assay type: functional, cell-based, Homo sapiens; settings: Homo sapiens, D-247MG
# Description: SANGER: Inhibition of human D-247MG cell growth in a cell viability assay.
# [4] = system: DU-4475; assay type: functional, cell-based; settings: Homo sapiens
# Description: SANGER: Inhibition of human DU-4475 cell growth in a cell viability assay.
# [5] = system: Daoy; assay type: functional, cell-based, Homo sapiens; settings: Homo sapiens, Daoy;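 also: daoy cell growth inhibition, read out as cell viability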
# Description: SANGER: Inhibition of human Daoy cell growth in a cell viability assay.
# [6] = system: DoTc2-4510; assay type: functional, cell-based, Homo sapiens; settings: Homo sapiens, DoTc2-4510
# [7] = system: ES6; assay type: functional, cell-based, Homo sapiens; settings: Homo sapiens, ES6;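 also: growth inhibition of human ES6 cells, read out with a cell viability assay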
# Description: SANGER: Inhibition of human ES6 cell growth in a cell viability assay.
# [8] = system: ES8; assay type: functional, cell-based, Homo sapiens; settings: Homo sapiens, ES8;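 also: growth inhibition of human ES8 cells, read out with a cell viability assay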
# Description: SANGER: Inhibition of human ES8 cell growth in a cell viability assay.
# [9] = system: GAK; assay type: functional, cell-based, Homo sapiens; settings: Homo sapiens, GAK;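 also: cell growth inhibition read out by a cell viability assay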
# Description: SANGER: Inhibition of human GAK cell growth in a cell viability assay.
# [10] = system: H4; assay type: functional, cell-based; settings: Homo sapiens
# Description: SANGER: Inhibition of human H4 cell growth in a cell viability assay.
# [11] = system: HCC70; assay type: functional, cell-based, Homo sapiens; settings: Homo sapiens, HCC70;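 also: cell viability assay measuring how strongly the compound suppresses proliferation of HCC70 cells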
# Description: SANGER: Inhibition of human HCC70 cell growth in a cell viability assay.
# [12] = system: HCE-T; assay type: functional, cell-based, Homo sapiens; settings: Homo sapiens, HCE-T;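 also: cell viability assay read-out, reporting inhibition of HCE-T cell growth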
# Description: SANGER: Inhibition of human HCE-T cell growth in a cell viability assay.
# [13] = system: HL-60; assay type: functional, cell-based; settings: Homo sapiens;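 also: growth inhibition of human HL-60 cells, read out with a cell viability assay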
# Description: SANGER: Inhibition of human HL-60 cell growth in a cell viability assay.
# [14] = system: HOS; assay type: functional, cell-based, Homo sapiens; settings: Homo sapiens, HOS;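 also: growth inhibition of human HOS cells, read out with a cell viability assay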
# Description: SANGER: Inhibition of human HOS cell growth in a cell viability assay.
# [15] = system: KM12; assay type: functional, cell-based, Homo sapiens; settings: Homo sapiens, KM12;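 also: KM12 cell growth inhibition, read out with a cell viability assay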
# Description: SANGER: Inhibition of human KM12 cell growth in a cell viability assay.
# [16] = system: KNS-42; assay type: functional, cell-based, Homo sapiens; settings: Homo sapiens, KNS-42;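 also: growth inhibition of KNS-42 cells, read out with a cell viability assay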
# Description: SANGER: Inhibition of human KNS-42 cell growth in a cell viability assay.
# [17] = system: KNS-81-FD; assay type: functional, cell-based, Homo sapiens; settings: Homo sapiens, KNS-81-FD;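 also: growth inhibition of KNS-81-FD cells, read out with a cell viability assay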
# Description: SANGER: Inhibition of human KNS-81-FD cell growth in a cell viability assay.
# [18] = system: L-363; assay type: functional, cell-based; settings: Homo sapiens
# Description: SANGER: Inhibition of human L-363 cell growth in a cell viability assay.
# [19] = system: LCLC-97TM1; assay type: functional, cell-based, Homo sapiens; settings: Homo sapiens, LCLC-97TM1;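 also: cell viability assay measuring growth inhibition of human LCLC-97TM1 cells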
# Description: SANGER: Inhibition of human LCLC-97TM1 cell growth in a cell viability assay.
# [20] = system: LS-123; assay type: functional, cell-based, Homo sapiens; settings: Homo sapiens, LS-123
# Description: SANGER: Inhibition of human LS-123 cell growth in a cell viability assay.
# [21] = system: MC-IXC; assay type: functional, cell-based, Homo sapiens; settings: Homo sapiens, MC-IXC;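 also: growth inhibition of MC-IXC cells, read out with a cell viability assay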
# Description: SANGER: Inhibition of human MC-IXC cell growth in a cell viability assay.
# [22] = system: MDA-MB-157; assay type: functional, cell-based, Homo sapiens; settings: Homo sapiens, MDA-MB-157
# Description: SANGER: Inhibition of human MDA-MB-157 cell growth in a cell viability assay.
# [23] = system: MDA-MB-453; assay type: functional, cell-based, Homo sapiens; settings: Homo sapiens, MDA-MB-453
# Description: SANGER: Inhibition of human MDA-MB-453 cell growth in a cell viability assay.
# [24] = system: MKN-28; assay type: functional, cell-based, Homo sapiens; settings: Homo sapiens, MKN-28;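 also: cell viability assay read-out, IC50 reflects suppression of growth of human MKN-28 cells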
# Description: SANGER: Inhibition of human MKN28 cell growth in a cell viability assay.
# [25] = system: ML-2; assay type: functional, cell-based; settings: Homo sapiens;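 also: growth inhibition of ML-2 cells, measured with a cell viability readout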
# Description: SANGER: Inhibition of human ML-2 cell growth in a cell viability assay.
# [26] = system: NCI-H1304; assay type: functional, cell-based; settings: Homo sapiens;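 also: growth inhibition of the cancer cell line, measured in a cell viability assay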
# Description: SANGER: Inhibition of human NCI-H1304 cell growth in a cell viability assay.
# [27] = system: NCI-H2170; assay type: functional, cell-based, Homo sapiens; settings: Homo sapiens, NCI-H2170;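 also: cell viability assay measuring growth inhibition of human NCI-H2170 cancer cells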
# Description: SANGER: Inhibition of human NCI-H2170 cell growth in a cell viability assay.
# [28] = system: NCI-H2405; assay type: functional, cell-based, Homo sapiens; settings: Homo sapiens, NCI-H2405;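 also: growth inhibition of the human cell line, read out with a cell viability assay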
# Description: SANGER: Inhibition of human NCI-H2405 cell growth in a cell viability assay.
# [29] = system: NCI-H727; assay type: functional, cell-based, Homo sapiens; settings: Homo sapiens, NCI-H727;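 also: growth inhibition of human NCI-H727 cells, read out with a cell viability assay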
# Description: SANGER: Inhibition of human NCI-H727 cell growth in a cell viability assay.
# [30] = system: NCI-H747; assay type: functional, cell-based; settings: Homo sapiens;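 also: growth inhibition of human NCI-H747 cells, read out by a cell viability assay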
# Description: SANGER: Inhibition of human NCI-H747 cell growth in a cell viability assay.
# [31] = system: NUGC-3; assay type: functional, cell-based, Homo sapiens; settings: Homo sapiens, NUGC-3;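 also: growth inhibition of human NUGC-3 cells, read out with a cell viability assay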
# Description: SANGER: Inhibition of human NUGC-3 cell growth in a cell viability assay.
# [32] = system: RCC10RGB; assay type: functional, cell-based, Homo sapiens; settings: Homo sapiens, RCC10RGB;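 also: growth inhibition of human RCC10RGB cells, read out by a cell viability assay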
# Description: SANGER: Inhibition of human RCC10RGB cell growth in a cell viability assay.
# [33] = system: RD; assay type: functional, cell-based, Homo sapiens; settings: Homo sapiens, RD
# Description: SANGER: Inhibition of human RD cell growth in a cell viability assay.
# [34] = system: RXF 393; assay type: functional, cell-based; settings: Homo sapiens;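 also: growth inhibition of human RXF 393 cells, read out with a cell viability assay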
# Description: SANGER: Inhibition of human RXF393 cell growth in a cell viability assay.
# [35] = system: SCH; assay type: functional, cell-based, Homo sapiens; settings: Homo sapiens, SCH;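 also: growth inhibition of human SCH cells, read out in a cell viability assay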
# Description: SANGER: Inhibition of human SCH cell growth in a cell viability assay.
# [36] = system: SF-295; assay type: functional, cell-based, Homo sapiens; settings: Homo sapiens, SF-295;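 also: growth inhibition of SF-295 cells, read out with a cell viability assay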
# Description: SANGER: Inhibition of human SF295 cell growth in a cell viability assay.
# [37] = system: SHP77; assay type: functional, cell-based, Homo sapiens, SHP-77; settings: Homo sapiens, SHP77;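 also: growth inhibition of human SHP-77 cells measured by a cell viability assay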
# Description: SANGER: Inhibition of human SHP-77 cell growth in a cell viability assay.
# [38] = system: SK-UT-1; assay type: functional, cell-based, Homo sapiens; settings: Homo sapiens, SK-UT-1;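 also: growth inhibition of SK-UT-1 cells, measured by a cell viability assay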
# Description: SANGER: Inhibition of human SK-UT-1 cell growth in a cell viability assay.
# [39] = system: SW1463; assay type: functional, cell-based, Homo sapiens; settings: Homo sapiens, SW1463;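 also: growth inhibition of SW1463 cells, determined with a cell viability assay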
# Description: SANGER: Inhibition of human SW1463 cell growth in a cell viability assay.
# [40] = system: TE-1; assay type: functional, cell-based, Homo sapiens; settings: Homo sapiens, TE-1;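 also: growth inhibition of the human TE-1 cell line, read out with a cell viability assay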
# Description: SANGER: Inhibition of human TE-1 cell growth in a cell viability assay.
# [41] = system: A-427; assay type: functional, cell-based, Homo sapiens; settings: Homo sapiens, A-427;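 also: growth inhibition of human A-427 cells, read out by a cell viability assay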
# Description: SANGER: Inhibition of human A427 cell growth in a cell viability assay.
# [42] = system: A704; assay type: functional, cell-based, Homo sapiens; settings: Homo sapiens, A704;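 also: growth inhibition of human A704 cells, read out with a cell viability assay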
# Description: SANGER: Inhibition of human A704 cell growth in a cell viability assay.
# [43] = system: AM-38; assay type: functional, cell-based, Homo sapiens; settings: Homo sapiens, AM-38;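 also: growth inhibition of AM-38 cells of human origin, read out by a cell viability assay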
# Description: SANGER: Inhibition of human AM-38 cell growth in a cell viability assay.
# [44] = system: BB65-RCC; assay type: functional, cell-based, Homo sapiens; settings: Homo sapiens, BB65-RCC;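 also: growth inhibition of the cell line, measured with a cell viability assay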
# Description: SANGER: Inhibition of human BB65-RCC cell growth in a cell viability assay.
# [45] = system: CAL-12T; assay type: functional, cell-based, Homo sapiens; settings: Homo sapiens, CAL-12T;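 also: growth inhibition of human CAL-12T cells, read out with a cell viability assay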
# Description: SANGER: Inhibition of human CAL-12T cell growth in a cell viability assay.
# [46] = system: CAL-33; assay type: functional, cell-based, Homo sapiens; settings: Homo sapiens, CAL-33;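 also: growth inhibition of CAL-33 cells, read out with a cell viability assay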
# Description: SANGER: Inhibition of human CAL-33 cell growth in a cell viability assay.
# [47] = system: CAL-85-1; assay type: functional, cell-based; settings: Homo sapiens;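 also: growth inhibition of human CAL-85-1 cells, read out with a cell viability assay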
# Description: SANGER: Inhibition of human CAL-85-1 cell growth in a cell viability assay.
# [48] = system: TE-10; assay type: functional, cell-based, Homo sapiens; settings: Homo sapiens, TE-10;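 also: growth inhibition of TE-10 cells, measured by a cell viability assay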
# Description: SANGER: Inhibition of human TE-10 cell growth in a cell viability assay.
# [49] = system: WM-115; assay type: functional, cell-based, Homo sapiens; settings: Homo sapiens, WM-115
# Description: SANGER: Inhibition of human WM-115 cell growth in a cell viability assay.
# [50] = system: no-11; assay type: functional, cell-based, Homo sapiens; settings: Homo sapiens;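 also: growth inhibition of human NO-11 cells, read out with a cell viability assay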
# Description: SANGER: Inhibition of human no-11 cell growth in a cell viability assay.
# [51] = system: COLO-320-HSR; assay type: functional, cell-based; settings: Homo sapiens;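 also: growth inhibition of COLO-320-HSR cells, determined with a cell viability assay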
# Description: SANGER: Inhibition of human COLO-320-HSR cell growth in a cell viability assay.
smiles,measurement,setting,value
O=C1N=C(NCc2cccs2)S/C1=C\c1ccc2ncccc2c1,IC50,[1],3.48 µM
same,IC50,[2],> 5 µM
same,IC50,[3],> 5 µM
same,IC50,[4],> 5 µM
same,IC50,[5],> 5 µM
same,IC50,[6],> 5 µM
same,IC50,[7],> 5 µM
same,IC50,[8],> 5 µM
same,IC50,[9],> 5 µM
same,IC50,[10],1.16 µM
same,IC50,[11],> 5 µM
same,IC50,[12],> 5 µM
same,IC50,[13],> 5 µM
same,IC50,[14],> 5 µM
same,IC50,[15],> 5 µM
same,IC50,[16],> 5 µM
same,IC50,[17],> 5 µM
same,IC50,[18],> 5 µM
same,IC50,[19],> 5 µM
same,IC50,[20],> 5 µM
same,IC50,[21],> 5 µM
same,IC50,[22],> 5 µM
same,IC50,[23],> 5 µM
same,IC50,[24],> 5 µM
same,IC50,[25],> 5 µM
same,IC50,[26],> 5 µM
same,IC50,[27],> 5 µM
same,IC50,[28],4.74 µM
same,IC50,[29],> 5 µM
same,IC50,[30],> 5 µM
same,IC50,[31],> 5 µM
same,IC50,[32],> 5 µM
same,IC50,[33],> 5 µM
same,IC50,[34],> 5 µM
same,IC50,[35],> 5 µM
same,IC50,[36]; read-out: IC50,> 5 µM
same,IC50,[37],> 5 µM
same,IC50,[38],> 5 µM
same,IC50,[39],> 5 µM
same,IC50,[40],> 5 µM
same,IC50,[41],> 5 µM
same,IC50,[42],> 5 µM
same,IC50,[43],> 5 µM
same,IC50,[44],> 5 µM
same,IC50,[45],> 5 µM
same,IC50,[46],> 5 µM
same,IC50,[47],> 5 µM
same,IC50,[48],> 5 µM
same,IC50,[49],> 5 µM
same,IC50,[50],> 5 µM
same,IC50,[51],> 5 µM
COc1ccc(-c2ccc3c(N4CCOC[C@@H]4C)nc(N4CCOC[C@@H]4C)nc3n2)cc1CO [AZD-8055],IC50,[1],0.423 µM
same,IC50,[2],> 2 µM
same,IC50,[3],> 2 µM
same,IC50,[4],0.0805 µM
same,IC50,[5],1.1 µM
same,IC50,[6],> 2 µM
same,IC50,[7],1.36 µM
same,IC50,[8],0.366 µM
same,IC50,[9],1.32 µM
same,IC50,[10],0.601 µM
same,IC50,[11],> 2 µM
same,IC50,[12],1.18 µM
same,IC50,[13],0.604 µM
same,IC50,[14],0.572 µM
same,IC50,[15],1.8 µM
same,IC50,[16],> 2 µM
same,IC50,[17],1.89 µM
same,IC50,[18],0.39 µM
same,IC50,[19],1.41 µM
same,IC50,[20],1.25 µM
same,IC50,[21],0.727 µM
same,IC50,[22],0.678 µM
same,IC50,[23],1.16 µM
same,IC50,[24],> 2 µM
same,IC50,[25],0.585 µM
same,IC50,[26],> 2 µM
same,IC50,[27],> 2 µM
same,IC50,[28],1.15 µM
same,IC50,[29],> 2 µM
same,IC50,[30],0.76 µM
same,IC50,[31],0.707 µM
same,IC50,[32],> 2 µM
same,IC50,[33],> 2 µM
same,IC50,[34],0.929 µM
same,IC50,[35],1.03 µM
same,IC50,[36]; read-out: IC50,0.685 µM
same,IC50,[37],> 2 µM
same,IC50,[39],> 2 µM
same,IC50,[40],> 2 µM
same,IC50,[41],0.962 µM
same,IC50,[42],0.818 µM
same,IC50,[43],1.37 µM
same,IC50,[44],0.308 µM
same,IC50,[45],0.78 µM
same,IC50,[46],0.865 µM
same,IC50,[47],1.53 µM
same,IC50,[48],> 2 µM
same,IC50,[49],0.689 µM
same,IC50,[50],> 2 µM
same,IC50,[51],> 2 µM
CC(=O)O[C@@]12CO[C@@H]1C[C@H](O)[C@@]1(C)C(=O)[C@H](O)C3=C(C)[C@@H](OC(=O)[C@H](O)[C@@H](NC(=O)OC(C)(C)C)c4ccccc4)C[C@@](O)([C@@H](OC(=O)c4ccccc4)[C@H]21)C3(C)C [DOCETAXEL],IC50,[1],> 0.01 µM
same,IC50,[2],0.00988 µM
same,IC50,[3],0.00173 µM
same,IC50,[4],0.00302 µM
same,IC50,[5],0.0007 µM
same,IC50,[6],> 0.01 µM
same,IC50,[7],> 0.01 µM
same,IC50,[8],0.00026 µM
same,IC50,[9],> 0.01 µM
same,IC50,[10],0.00196 µM
same,IC50,[11],0.00277 µM
same,IC50,[12],0.000162 µM
same,IC50,[13],0.00359 µM
same,IC50,[14],0.000782 µM
same,IC50,[15],0.00408 µM
same,IC50,[16],0.00412 µM
same,IC50,[17],0.00399 µM
same,IC50,[18],0.00376 µM
same,IC50,[19],0.00144 µM
same,IC50,[20],0.00425 µM
same,IC50,[21],0.000479 µM
same,IC50,[22],> 0.01 µM
same,IC50,[23],0.00451 µM
same,IC50,[24],0.00317 µM
same,IC50,[25],> 0.01 µM
same,IC50,[26],> 0.01 µM
same,IC50,[27],0.00535 µM
same,IC50,[28],> 0.01 µM
same,IC50,[29],> 0.01 µM
same,IC50,[30],> 0.01 µM
same,IC50,[31],0.00308 µM
same,IC50,[32],> 0.01 µM
same,IC50,[33],0.004 µM
same,IC50,[34],0.00222 µM
same,IC50,[35],0.00818 µM
same,IC50,[36],> 0.01 µM
same,IC50,[37],> 0.01 µM
same,IC50,[38],0.00226 µM
same,IC50,[39],> 0.01 µM
same,IC50,[40],0.00216 µM
same,IC50,[41],0.00148 µM
same,IC50,[42],> 0.01 µM
same,IC50,[43],> 0.01 µM
same,IC50,[44],0.00308 µM
same,IC50,[45],0.00376 µM
same,IC50,[46],0.00104 µM
same,IC50,[47],> 0.01 µM
same,IC50,[48],0.00254 µM
same,IC50,[49],0.00627 µM
same,IC50,[50],> 0.01 µM
same,IC50,[51],> 0.01 µM
